# Patent US20250197363A1, “THIADIAZOLE COMPOUND, AND PHARMACEUTICAL COMPOSITION FOR PREVENTING OR TREATING INFLAMMATORY DISEASES, INCLUDING SAME” (Cureverse Incorporated, priority 2022, published 2025)
# What was measured:
# [1] = target: PPARδ ligand-binding domain (LBD) (Homo sapiens (Human), UniProt Q03181); assay: PPARδ activation, TR-FRET coactivator peptide recruitment (enzyme activity EC50); assay type: biochemical; conditions: GST-PPARδ LBD 5 nM, read-out: Enzymatic activity (EC50)
# [2] = tested on: macrophage infiltration into carrageenan-injected sole; assay: Macrophage tracking by fluorescence imaging in carrageenan-induced acute inflammation; assay type: in vivo, mouse; conditions: C57BL/6 mice, 50 mg/kg oral, 6 hours after inducing inflammation, versus vehicle group
# Description: 2 mL of thioglycollate medium (BD, USA) was injected into the abdominal cavity of a C57Bl/6 mouse, and three days later, the mouse was cervically dislocated, and 8 mL of Dulbecco's modified Eagle's medium (DMEM) was injected into the abdominal cavity to collect cells. After centrifugation, the cells were suspended in DMEM containing 10% fetal bovine serum (FBS) and 1% penicillin-streptomycin and cultured in a 5% CO2 incubator at 37° C. for 2 hours. Non-adherent cells were removed, and the remaining cells were used for experiments.
# The acute anti-inflammatory activity of the example compound was evaluated using a macrophage tracking technique with fluorescence imaging. Macrophages extracted from the mouse abdominal cavity were labeled with Vybrant™ DiD Cell-Labeling Solution and then administered to the mouse via intravenous injection. The next day, 50 mg/kg of the example compound was orally administered, and 1 hour later, a 0.1% Carrageenan (CG) solution or PBS was subcutaneously injected into the right or left sole of the mouse. Fluorescent images were obtained using IVIS Lumina III at the designated time.
# The inflammation model induced by λ-carrageenan in the mouse foot region is an acute arthritis model and is useful when checking the effect of suppressing edema due to osteoarthritis. […]
# IL-6 = IL-6 secretion, cytometric bead array; assay type: cell-based; conditions: LPS-stimulated Raw264.7, 24 hours; 12 μM, 25 μM, 50 μM
# Source text: (§1) The supernatant was dispensed using the same method as used for measuring NO. High amounts of TNF-α and IL-6 in the supernatant were quantified using the multiplex bead-based immunoassay (BD™ Cytometric Bead Array) system and flow cytometry (BD Biosciences).
# (§2) LPS, well known as an endotoxin present in the outer cell membrane of Gram-negative bacteria, stimulates macrophages or monocytes to promote the secretion of inflammatory cytokines such as tumor necrosis factor-α (TNF-α), interleukin-1l (IL-1), and interleukin-6 (IL-6). Accordingly, in order to analyze the effect of the compound of Example 1 on inhibiting cytokine secretion, RAW264.7 cells were cultured for 24 hours by adding 1 mg/mL of LPS and the compound of Example 1 at concentrations of 0, 12 μM, 25 μM, and 50 μM, and the concentrations of IL-6 and TNFα in the culture supernatant were measured.
# TNF-α = TNF-α secretion, cytometric bead array; assay type: cell-based; conditions: LPS-stimulated Raw264.7, 24 hours; 12 μM, 25 μM, 50 μM
# Source text: as §1, §2
# NF-κB = assay: NF-κb promoter-luciferase assay; assay type: cell-based; conditions: LPS-treated Raw264.7/NF-κb-luciferase cells; 12 μM, 25 μM, 50 μM
# Description: Raw264.7/NF-kb-luc cells were treated with 1 mg/mL LPS and various concentrations of compounds using the same method as used for measuring NO. 16 hours later, after adding the D-luciferin solution to the cells, luminescence images were obtained using the IVIS Lumina III. Quantification of the luminescence images was performed using Living Imaging software.
# Nuclear factor-kappa B (NF-κB), which plays an important role in inflammatory responses, is a transcription factor that regulates the synthesis of various cytokines, chemokines, and growth factors. NFκB is composed of p50 and p65, enters the nucleus, acts as a transcription factor, and synthesizes iNOS, COX-2, and inflammation-related cytokines, and generally binds to the inhibitor NF-κBα (IκBα) in the cytoplasm, thereby inhibiting the action of NF-κB. In order to confirm whether NF-κb-related cell signaling induced in Raw264.7 cells was affected by the compound of Example 1, NF-κb promoter-luciferase analysis and pIKKαβ expression change analysis were performed in Raw264.7 cells using 1 mg/mL LPS and the compound of Example 1 at concentrations of 0, 12 μM, 25 μM, and 50 μM.
# iNOS = iNOS (Mus musculus (Mouse), UniProt P29477); assay: iNOS protein expression, Western blot; assay type: cell-based; conditions: LPS-stimulated Raw264.7; 12 μM, 25 μM, 50 μM
# Description: (§3) The cells were washed twice with cold PBS and lysed with RIPA buffer (Roche) containing a complete protease inhibitor cocktail. Protein concentration was quantified using the BCA protein assay kit (Pierce, IL, USA), and 30 μL of lysate was separated by 10% SDS-PAGE. The separated proteins were transferred to a polyvinylidene difluoride (PVDF) membrane (Biorad, CA, USA) at 70 mA for 1 hour and 30 minutes, then blocked with tris-buffered saline (TBST; pH 7.5) containing 50 mg/mL skim milk at room temperature for 2 hours. As antibodies to examine the expression levels of iNOS and pIKKαβ, anti-iNOS and pIKKαβ were used, diluted 1:1000 and reacted at room temperature for 2 hours, followed by washing three times with TBST. As secondary antibodies, horseradish peroxidase (HRP)-conjugated anti-mouse IgG and anti-rabbit IgG were diluted 1:2000 and reacted at room temperature for 1 hour, followed by washing three times with TBST. Peroxidase activity was detected using ECL-Plus according to the manufacturer's protocol.
# pIKKαβ = pIKKαβ (Mus musculus (Mouse), UniProt O88351+Q60680); assay: pIKKαβ protein expression, Western blot; assay type: cell-based; conditions: LPS-stimulated Raw264.7; 12 μM, 25 μM, 50 μM
# Description: as §3
# Nuclear factor-kappa B (NF-κB), which plays an important role in inflammatory responses, is a transcription factor that regulates the synthesis of various cytokines, chemokines, and growth factors. […]
# RAW 264.7 cells = assay: Cytotoxicity, CCK-8 assay; assay type: cell-based; conditions: Raw264.7 cells; 12 μM, 25 μM, 50 μM
# Description: To evaluate the cytotoxicity of the sample, cell proliferation was tested using a cell counting kit [CCK-8; Dojindo Laboratories (Tokyo, Japan)]. RAW 264.7 cell 1×10^4 cells/mL were dispensed into a well plate, and after pre-culturing for 20 hours, […] of LPS and example compounds were added at different concentrations and cultured for 24 hours in an incubator at 37° C. and 5% CO2. After culturing, 10 μl CCK-8 reagent was added and recultured for 1 to 2 hours, and the absorbance was measured. The absorbance was measured at 450 nm using a microplate reader [BMG Labtech (located in Offenburg, Germany)].
# In order to evaluate the cytotoxicity of the compound of Example 1, Raw264.7 cells, a macrophage cell line, were treated with the compound of Example 1 at concentrations of 0, 12 μM, 25 μM, and 50 μM, respectively, and then CCK8 assay was performed according to <Experiment Method> 3 above. […] Specifically, cell proliferation was similar to that of the vehicle group even at a concentration of up to 50 μM, and no significance was detected.
# [3] = tested on: LPS-stimulated Raw264.7 cells; assay: Nitric oxide (NO) production, Griess reagent; assay type: cell-based; conditions: LPS-stimulated Raw264.7, 24 hours
# Description: The concentration of NO was measured using the nitrite concentration in the culture medium with the Griess reagent system (Promega). Raw264.7 cells were adjusted to 2.5×10^5 cells/mL using DMEM medium, inoculated into 24-well plates, and pre-cultured for 20 hours in a 5% CO2 incubator. The cells were treated with […] of LPS and various concentrations of the example compounds and recultured for 24 hours. After obtaining the supernatant of the culture medium, the NO concentration was measured using the Griess reagent system according to the protocol provided by the manufacturer. The absorbance was measured at 540 nm using a microplate reader [BMG Labtech (located in Offenburg, Germany)]. The concentration of NO in the cell culture medium was calculated by comparing it with a standard curve for each concentration of sodium nitrite (NaNO2).
# 1 mg/mL lipopolysaccharide (LPS) and the compounds of Example 1 at concentrations of 0, 12 μM, 25 μM, and 50 μM were added to Raw264.7 cells, cultured for 24 hours, and changes in NO concentration in the upper layer of the culture were analyzed.
# Sequence of PPARδ ligand-binding domain (LBD) (Q03181 211-439): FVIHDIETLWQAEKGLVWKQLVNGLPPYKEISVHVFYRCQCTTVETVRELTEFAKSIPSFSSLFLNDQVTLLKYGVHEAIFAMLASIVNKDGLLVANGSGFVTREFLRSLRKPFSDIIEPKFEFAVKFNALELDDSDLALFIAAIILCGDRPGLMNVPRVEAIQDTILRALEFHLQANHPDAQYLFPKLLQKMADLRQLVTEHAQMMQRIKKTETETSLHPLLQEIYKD
SMILES,EC50 [1] [nM],also measured
"Cc1cc(SCc2nnc(-c3ccc(C(F)(F)F)cc3)s2)ccc1OC(C)C(=O)O (stereo not shown) [Example 2, 2-(2-methyl-4-(((5-(4-(trifluoromethyl)phenyl)-1,3,4-thiadiazol-2-yl)methyl)thio)phenoxy)propanoic acid]",420,–
"Cc1cc(SCc2nnc(-c3ccc(OC(F)(F)F)cc3)s2)ccc1OC(C)(C)C(=O)O [Example 27, 2-methyl-2-(2-methyl-4-(((5-(4-(trifluoromethoxy)phenyl)-1,3,4-thiadiazol-2-yl)methyl)thio)phenoxy)propanoic acid]",595,–
"Cc1cc(SCc2nnc(-c3ccc(F)c(F)c3)s2)ccc1OC(C)C(=O)O (stereo not shown) [Example 13, 2-(4-(((5-(3,4-difluorophenyl)-1,3,4-thiadiazol-2-yl)methyl)thio)-2-methylphenoxy)propanoic acid]",6160,–
"Cc1cc(SCc2nnc(-c3ccc(C(F)(F)F)c(F)c3)s2)ccc1OC(C)(C)C(=O)O [Example 21, 2-(4-(((5-(3-fluoro-4-(trifluoromethyl)phenyl)-1,3,4-thiadiazol-2-yl)methyl)thio)-2-methylphenoxy)-2-methylpropanoic acid]",2660,–
"Cc1cc(SCc2nnc(-c3ccc(F)cc3)s2)ccc1OCC(=O)O [Example 9, 2-(4-(((5-(4-fluorophenyl)-1,3,4-thiadiazol-2-yl)methyl)thio)-2-methylphenoxy)acetic acid]",2440,–
"Cc1ccc(-c2nnc(CSc3ccc(OC(C)(C)C(=O)O)c(C)c3)s2)cc1 [Example 24, 2-methyl-2-(2-methyl-4-(((5-(p-tolyl)-1,3,4-thiadiazol-2-yl)methyl)thio)phenoxy)propanoic acid]",1250,–
"Cc1cc(SCc2nnc(-c3ccc(F)c(F)c3)s2)ccc1OCC(=O)O [Example 12, 2-(4-(((5-(3,4-difluorophenyl)-1,3,4-thiadiazol-2-yl)methyl)thio)-2-methylphenoxy)acetic acid]",663,–
"Cc1cc(SCc2nnc(-c3ccc(F)c(Cl)c3)s2)ccc1OCC(=O)O [Example 16, 2-(4-(((5-(3-chloro-4-fluorophenyl)-1,3,4-thiadiazol-2-yl)methyl)thio)-2-methylphenoxy)acetic acid]",1350,–
"Cc1ccc(-c2nnc(CSc3ccc(OC(C)C(=O)O)c(C)c3)s2)cc1 (stereo not shown) [Example 23, 2-(2-methyl-4-(((5-(p-tolyl)-1,3,4-thiadiazol-2-yl)methyl)thio)phenoxy)propanoic acid]",5700,–
"Cc1cc(SCc2nnc(-c3ccc(OC(F)(F)F)cc3)s2)ccc1OCC(=O)O [Example 25, 2-(2-methyl-4-(((5-(4-(trifluoromethoxy)phenyl)-1,3,4-thiadiazol-2-yl)methyl)thio)phenoxy)acetic acid]",42,–
"Cc1cc(SCc2nnc(-c3ccc(OC(F)(F)F)cc3)s2)ccc1OC(C)C(=O)O (stereo not shown) [Example 26, 2-(2-methyl-4-(((5-(4-(trifluoromethoxy)phenyl)-1,3,4-thiadiazol-2-yl)methyl)thio)phenoxy)propanoic acid]",1240,–
"Cc1cc(SCc2nnc(-c3ccc(C(F)(F)F)cc3)s2)ccc1OCC(=O)O [Example 1, 2-(2-methyl-4-(((5-(4-(trifluoromethyl)phenyl)-1,3,4-thiadiazol-2-yl)methyl)thio)phenoxy)acetic acid]",39.9,"fluorescent signal of labeled macrophages in sole injected with 0.1% CG [2]: lower fluorescent signal; production of IL-6 (IL-6): effectively inhibited; production of TNFα (TNF-α): effectively inhibited; NF-κb-luciferase luminescent signals (NF-κB): decreased in a concentration-dependent manner; iNOS protein expression (iNOS): significantly suppressed; pIKKαβ protein expression (pIKKαβ): effectively reduced; cytotoxicity (CCK8 assay, cell proliferation) (RAW 264.7 cells): no cytotoxicity at all concentrations; NO concentration produced ([3]; compound 12.5 μM (0 μM control 22.8±1.3 μM)): 18.9 ± 0.3 µM; NO concentration produced ([3]; compound 25 μM (0 μM control 22.8±1.3 μM)): 14.8 ± 0.54 µM; NO concentration produced ([3]; compound 50 μM (0 μM control 22.8±1.3 μM)): 2.41 ± 0.24 µM"
"Cc1cc(SCc2nnc(-c3ccc(C(F)(F)F)cc3)s2)ccc1OC(C)(C)C(=O)O [Example 3, 2-methyl-2-(2-methyl-4-(((5-(4-(trifluoromethyl)phenyl)-1,3,4-thiadiazol-2-yl)methyl)thio)phenoxy)propanoic acid]",374,–
"Cc1cc(SCc2nnc(-c3ccc(C(F)(F)F)cc3)s2)ccc1OCC(=O)NC#N [Example 8, N-cyano-2-(2-methyl-4-(((5-(4-(trifluoromethyl)phenyl)-1,3,4-thiadiazol-2-yl)methyl)thio)phenoxy)acetamide]",504,–
"Cc1cc(SCc2nnc(-c3cc(F)c(F)c(F)c3)s2)ccc1OCC(=O)O [Example 15, 2-(2-methyl-4-(((5-(3,4,5-trifluorophenyl)-1,3,4-thiadiazol-2-yl)methyl)thio)phenoxy)acetic acid]",4010,–
